# Results reported in ChEMBL document CHEMBL1130409, “Hydrazide-containing inhibitors of HIV-1 integrase” (J Med Chem, 1997).
# How the values were obtained:
# [1] = target: T1, Human immunodeficiency virus type 1 integrase (Human immunodeficiency virus 1, UniProt Q7ZJM1); assay: Inhibition of HIV-1 integrase enzyme by 3'-processing method
# [2] = target: T1, Human immunodeficiency virus type 1 integrase; assay: Inhibition of HIV-1 integrase enzyme
# [3] = target: T1, Human immunodeficiency virus type 1 integrase; assay: Inhibition of HIV-1 integrase enzyme by integration method
# [4] = target: T1, Human immunodeficiency virus type 1 integrase; assay: Inhibition of HIV-1 integrase enzyme by 3'-processing method (experiment 1)
# [5] = target: T1, Human immunodeficiency virus type 1 integrase; assay: Inhibition of HIV-1 integrase enzyme by 3'-processing method (experiment 2)
# [6] = target: T1, Human immunodeficiency virus type 1 integrase; assay: Inhibition of HIV-1 integrase enzyme by integration method (experiment 1)
# [7] = target: T1, Human immunodeficiency virus type 1 integrase; assay: Inhibition of HIV-1 integrase enzyme by integration method (experiment 2)
# T1 sequence (Q7ZJM1 whole entry): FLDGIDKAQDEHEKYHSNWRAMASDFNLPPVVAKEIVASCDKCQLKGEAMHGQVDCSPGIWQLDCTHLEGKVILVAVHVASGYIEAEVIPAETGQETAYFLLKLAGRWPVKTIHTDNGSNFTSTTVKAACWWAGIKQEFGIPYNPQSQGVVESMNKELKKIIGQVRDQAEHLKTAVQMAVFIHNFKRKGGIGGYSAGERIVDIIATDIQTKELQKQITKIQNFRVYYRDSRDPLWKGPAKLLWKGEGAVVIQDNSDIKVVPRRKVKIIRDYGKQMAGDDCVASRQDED
IC50 [1],IC50 [2],SMILES,other results
> 100 µM,> 100 µM,O=C(NNC(=O)c1ccccc1O)c1ccccc1,–
> 100 µM,> 100 µM,CC(=O)NNC(=O)c1ccccc1O,–
> 100 µM,> 100 µM,O=C(NNC(=O)c1ccccc1)c1ccccc1,–
> 100 µM,> 100 µM,Nc1ccccc1C(=O)NNC(=O)c1ccccc1N,–
> 200 µM,–,O=C(NNCC(O)COc1ccccc1)c1ccccc1O (stereo not given),IC50 [3]: > 200 µM
> 200 µM,> 200 µM,NN(CC(O)COc1ccccc1)C(=O)c1ccccc1O (stereo not given),–
2.3 µM,1.1 µM,O=C(NNC(=O)c1cc2ccccc2cc1O)c1ccccc1O,–
> 200 µM,> 200 µM,O=C(NCCCNC(=O)c1ccccc1O)c1ccccc1O,–
> 100 µM,> 100 µM,NNC(=O)c1ccccc1N,–
–,–,NNC(=O)c1ccccc1O,IC50 [4]: 46 µM; IC50 [5]: 114 µM; IC50 [6]: 33 µM; IC50 [7]: 43 µM
> 100 µM,> 100 µM,O=C(N/N=C/c1ccccc1O)c1ccccc1O,–
–,–,NNC(=O)c1ccccc1S,IC50 [4]: 70 µM; IC50 [5]: 79.6 µM; IC50 [6]: 57.5 µM; IC50 [7]: 50 µM
6.7 µM,5.2 µM,O=C(NNCc1ccccc1O)c1ccccc1O,–
> 100 µM,> 100 µM,O=C(NNC(=O)c1ccccn1)c1ccccn1,–
> 100 µM,> 100 µM,NC(=O)c1ccccc1O [SALICYLAMIDE],–
> 100 µM,> 100 µM,Nc1ccccc1C(=O)NNC(=O)c1ccccc1O,–
9.1 µM,5.8 µM,O=C(NNC(=O)c1ccccc1S)c1ccccc1O,–

SMILES,IC50 [1],IC50 [2],other results
O=C(NNC(=O)c1ccccc1O)c1ccccc1O,2.07 µM,0.73 µM,–
